# Values of other authors, collected in US20240115666A1, “COMPOSITIONS AND METHODS FOR REDUCING GAMMA-GLUTAMYLTRANSFERASE LEVELS” (Lile Method Research, LLC, priority 2022, published 2024).
smiles,measurement,value
"N[C@@H](CCC(=O)N[C@@H](CS)C(=O)NCC(=O)O)C(=O)O [glutathione, L-γ-glutamyl-L-cysteinylglycine]",half-life in the blood,seconds to minutes
